Tests used:
CYP1A1 and CYP2B1 = assay: Cytochrome P450 activity of bilayer construct after induction (7-ethoxy/7-pentoxy resorufin); assay type: cell-based, human; settings: 24 h exposure, then 7-ethoxy or 7-pentoxy resorufin for 30 min; FIG. 8
Method: The effects of polycyclic carcinogens on cytochrome P450 activity in the artificial tissue constructs was also analyzed. Cytochrome P450 proteins are involved in the metabolism of many exogenous and endogenous chemicals, including drugs, steroids, and toxins. Cytochrome P450 induction is indicative of chemical metabolism. Cellular P450 enzyme activity of CYP1A1 & CYP2B1 families was studied. The bilayer constructs were prepared from biopsy samples of three different patients.
The mucosal construct was exposed to either 3-methylcholantherine and β-nitrophenol (FIG. 8) for 24 h, followed by 7-ethoxy resorufin (5-15 μM) or 7-pentoxy resorufin (5-15 μM) addition (for 30 min) to quantify CYP 1A1 and CYP 2B1 activity, respectively. A β-glucuronidase and arylsulfatase enzyme cocktail was then added to the samples and they were incubated for 2 h at 37° C. Fluorometric absorbance was then measured. A standard curve was prepared using resorufin to quantify the P450 activity. 3-Methylcholanthere and β-nitrophenol are known environmental carcinogens found in cigarette smoke and in airborne industrial byproducts.

[1] = system: alveolar artificial tissue construct cells; assay: WST-1 cellular (mitochondrial) activity of treated construct cells; assay type: cell-based, human; settings: stated in the WST-1 paragraph; 24-h treatments
Method: Cellular uptake of WST-1 was used to determine the mitochondrial activity of live cells. A spectroscopic reading of the collected/metabolized tetrazolium salt was performed to compare the cellular activity of hormone or bacterial particle treated cells to the non-treated control cells after 24-h treatments.

[2] = system: bilayer mucosal construct (primary human alveolar epithelial and endothelial cells); assay: Cytokine production by bilayer alveolar mucosal construct (BioPlex/Luminex 22-plex); assay type: cell-based; settings: corticosteroid addition for 24 h vs control; FIG. 7
Method: Immunosuppressant effects on the cultured mucosal construct were tested by the addition of, for example, dexamethasone (0.5-0.1 μM) and hydrocortisone (5-10 μM) for 24 h. The effect of, for example, diesel particles (0.01-0.2 mg/mL) and urban dust (0.01-0.2 mg/mL) exposure was also studied in the alveolar tissue. NIST standards Diesel Particulate Matter (SRM 2975), and Urban Dust (SRM 1649a), containing both organic and inorganic components, were used as environmental irritants (FIG. 3). A BioPlex 22-Plex™ cytokine kit (Upstate) was used to quantify the cytokine levels in the collected media.
The cytokine profile of the bilayer construct prepared in a 0.33 cm^2 area Transwell™ cell culture device was compared with the alveolar epithelial cells cultured in T-25 flasks. Controls for each experiment with or without the various irritant treatments were also included in the experimental design.
The effects of immunosuppressant hormonal treatment (dexamethasone and hydrocortisone) and exposure to bacterial particles (E. coli and Staphylococcus aureus) on respiratory cells were examined by quantifying cytokine production by the mucosal tissue. […]
Using Luminex™ immunoassay technology, we simultaneously quantified the 22 cytokine and chemokines in the collected treatment media. […]

SMILES	p450 (CYP1A1 and CYP2B1) activation of construct cells (CYP1A1 and CYP2B1)	activation of alveolar artificial tissue construct cells [1]	cytokine production by the native cells of the bilayer mucosal construct [2]
Cc1ccc2cc3c(ccc4ccccc43)c3c2c1CC3 [3-methylcholanthere]	activated	activated	–
O=c1cc(-c2ccccc2)oc2ccc3ccccc3c12 [BNF, β-napthophenol]	less activated	less activated	–
C[C@]12CCC(=O)C=C1CC[C@@H]1[C@@H]2[C@@H](O)C[C@@]2(C)[C@H]1CC[C@]2(O)C(=O)CO [hydrocortisone]	–	–	significant decrease

Reference: US9566250B2, “Artificial tissue constructs comprising alveolar cells and methods for using the same” (SANOFI PASTEUR VAXDESIGN CORPORATION, priority 2007, dated 2017)
